Assay [1] has as its system E. coli. The experiment in a line: Current from unconjugated redox active reporter moieties mediating electron transfer between E. coli and the electrode in ECs. In kind it is cell-based, Escherichia coli. The conditions noted are these: 5×10^5 CFU mL^−1 of E. coli; for Maximum recorded current in ECs: unconjugated reporter 50 μM. How it is done:
(§1) Resorufin (TCI-Europe), 2-hydroxy-1,4-naphthoquinone (2H14NQ) (TCI-Europe), 5-hydroxy-1,4-naphthoquinone (5H14NQ) (TCI-Europe) and 5,8-dihydroxy-1,4-naphthoquinone (58H14NQ) (Sigma-Aldrich) were obtained commercially and added to M9 medium in their unconjugated form to achieve a working concentration of 50 μM. Resorufin glycoconjugates (resorufin-β-d-galactopyranoside and resorufin-β-d-glucopyranoside) were obtained commercially (Sigma-Aldrich), whereas 2-hydroxy-1,4-naphthoquinone-β-d-galactopyranoside (2H14NQGal) and 2-hydroxy-1,4-naphthoquinone-β-d-glucopyranoside (2H14NQG1u) were specifically synthesized by Sussex Research Ltd. All reporters were added to a final concentration of 50 μM. Stock concentrations (1.0×10^−3 M) of 2H14NQ and 5H14NQ were prepared by first dissolving in 10 μL of 2 M NaOH and then making up to volume in Type II water (Veolia) whereas 58H14NQ (1.0×10^−3 M) was prepared in 1:1 DMSO:Type II water aliquots. Both stock solutions were stored at −20° C. until needed. Conjugated reporters were maintained as 1 mM stock solutions in Type II water and stored at 5° C.
(§2) Escherichia coli strain BL21 was selected to represent a FIB of human origin that contains the uidA and lacZ genes, i.e. a FC, whereas Aeromonas hydrophila (DSM 6173) is an environmental organism that has the lacZ gene but which is not considered a coliform. All organisms were cultured aerobically for 20 h. E. coli was grown in Luria Bertani (Lennox) medium at 37° C., and A. hydrophile at 30° C. in tryptone soy broth (TSB) in a shaking incubator.
(§3) The resulting overnight cultures were diluted in sterile modified M9 medium (Na2HPO4.7H2O (126 mM); KH2PO4 (110 mM); NH4Cl (93 mM); NaCl (42 mM); 1 mL/L vitamin stock solution; tryptone 12.5 g/L; HEPES: 6 g/L; and macro nutrients). The carbon source was either D-galacturonic acid or D-glucuronic acid (3.75 g/L) to achieve a final inoculum density in the range of 1.0×10^0, 5.0×10^0, 5.0×10^1, 5.0×10^2, 5.0×10^3, 5.0×10^4, and 5.0×10^5 CFU mL^−1 in both electrochemical system and the bioelectrochemical system.
Conical ECs with a working volume of 10 mL were used with a customized Teflon cap to accommodate a three electrode configuration along with gas fittings to maintain a moist anaerobic atmosphere. Carbon felt working electrodes (1×1×0.318 cm) (VWR, Singapore) were kept for 24 h in 1 M HCl and stored in deionized (DI) water before use. The electrodes were connected to titanium wire (0.25 mmØ, Sigma-Aldrich) using a nylon nut and bolt. A coiled titanium wire was used as counter electrode and an Ag/AgCl reference electrode (78 mm, 6 mm Outer Ø, Biologic, France) was connected using a 1 M KCl in 1.5% agar salt bridge. The assembled cell was then filled with 1 M KCl solution ending in a 4 mm glass frit (CoralPor™, Biologic, France). The entire assembly was then autoclaved (121° C. for 15 min). Nine mL of degassed modified M9 medium was added to the ECs and supplemented with a reporter to a final concentration of 5.0×10^−5 M in 10 mL working volume. […]
(§4) Following reporter supplement and inoculation with the test microorganism, the ECs were connected to a multichannel potentiostat (Biologic, France) and cyclic voltammetry (CV) and differential pulse voltammetry (DPV) were performed immediately. Data acquisition was recorded by EC-Lab software (Biologic, France). […] A detection event was calculated as 4 times the standard deviation of the baseline and detection times are expressed as the mean of triplicate analyses unless stated otherwise. […]

For assay [2], the system named is E. coli. The experiment in a line: Current from unconjugated redox active reporter moieties with E. coli in self-powering bioelectrochemical systems (BES, microbial fuel cells). Conditions: 1 kΩ load, ambient temperature. It counts as cell-based, Escherichia coli. How it is done: as §1, with “5° C. […]” for “5° C.”
Dual chamber U-tube BESs, in the form of microbial fuel cells (MFCs), were constructed with two 90° 28/15 ball-to-plain-end and socket-to-plain-end glass quick fit elbows (17 mm O.D.×1.8 mm wall thickness) (VWR, Singapore) to form the anode and cathode chambers (Sund et al., Appl. Microbiol. Biotechnol. 2007; 76:561-568.). […] A 1 kΩ load was applied across the circuit and potential difference was recorded using an eDAQ e-corder® data acquisition system (ED 1621-16 channel recorder) equipped with Chart™ software (Bronjo Medi, Singapore) at a rate of 1 data point every 5 min. […]
Naphthoquinones are cheap redox active molecules which are compatible with E. coli and can be readily conjugated to pyranose rings (Rau et al. Environ. Sci. Technol. 2002; 36:1497-1504; Park and Zeikus. Appl. Environ. Microbiol. 2000; 66:1292-1297). […]

For assay [3], the system named is Escherichia coli strain BL21. The experiment in a line: Chronoamperometric detection of E. coli with electrochemically active reporters in three-electrode electrochemical systems (ECs). It counts as cell-based. The conditions noted are these: for Detection time (±std dev): chronoamperometry in ECs, reporter 50 μM; for Detection time for E. coli: inoculum sizes between 5×10^5-5×10^3, ECs (Table 1). How it is done:
as §1, §2, §3
Conical ECs with a working volume of 10 mL were used with a customized Teflon cap to accommodate a three electrode configuration along with gas fittings to maintain a moist anaerobic atmosphere. Carbon felt working electrodes (1×1×0.318 cm) (VWR, Singapore) were kept for 24 h in 1 M HCl and stored in deionized (DI) water before use. The electrodes were connected to titanium wire (0.25 mmØ, Sigma-Aldrich) using a nylon nut and bolt. A coiled titanium wire was used as counter electrode and an Ag/AgCl reference electrode (78 mm, 6 mm Outer Ø, Biologic, France) was connected using a 1 M KCl in 1.5% agar salt bridge. The assembled cell was then filled with 1 M KCl solution ending in a 4 mm glass frit (CoralPor™, Biologic, France). The entire assembly was then autoclaved (121° C. for 15 min). Nine mL of degassed modified M9 medium was added to the ECs and supplemented with a reporter to a final concentration of 5.0×10^−5 M in 10 mL working volume. The ECs were then inoculated with the targeted test organism to achieve a final working volume of 10 mL. The headspace was flushed continuously with sterile humidified N2. The ECs were operated at 30° C., 37° C. or 44.5° C. Stirring was maintained continuously with a magnetic stirrer in the dark to prevent photo-bleaching of the light sensitive mediators.
Following reporter supplement and inoculation with the test microorganism, the ECs were connected to a multichannel potentiostat (Biologic, France) and cyclic voltammetry (CV) and differential pulse voltammetry (DPV) were performed immediately. Data acquisition was recorded by EC-Lab software (Biologic, France). Chronoamperometry (CA) was applied for up to 24 h to detect redox active reporter moieties. A detection event was calculated as 4 times the standard deviation of the baseline and detection times are expressed as the mean of triplicate analyses unless stated otherwise. […]

The test system of assay [4] is mixed culture of E. coli and A. hydrophila. The experiment in a line: Detection time of mixed culture of A. hydrophila and E. coli in ECs. Conditions: 44.5° C.; E. coli constant 5×10^5 CFU mL^−1; A. hydrophila from 5×10^2-5×10^5 CFU mL^−1 (FIG. 6). It counts as cell-based, Escherichia coli; Aeromonas hydrophila. How it is done:
as §2, §3
Conical ECs with a working volume of 10 mL were used with a customized Teflon cap to accommodate a three electrode configuration along with gas fittings to maintain a moist anaerobic atmosphere. Carbon felt working electrodes (1×1×0.318 cm) (VWR, Singapore) were kept for 24 h in 1 M HCl and stored in deionized (DI) water before use. The electrodes were connected to titanium wire (0.25 mmØ, Sigma-Aldrich) using a nylon nut and bolt. A coiled titanium wire was used as counter electrode and an Ag/AgCl reference electrode (78 mm, 6 mm Outer Ø, Biologic, France) was connected using a 1 M KCl in 1.5% agar salt bridge. […]
as §4

Another assay deals with Escherichia coli. The experiment in a line: Suitability of colorimetric detection compounds for bioelectrochemical detection of Escherichia coli. In kind it is cell-based. The conditions noted are these: compound used for colorimetric detection of Escherichia coli. An excerpt:
Bioelectroanalytical techniques are emerging as ways to enumerate and scrutinize microbial systems. But there is still need in the art for technologies specifically designed for bioelectroanalytical detection of FIB. […] The latter, in particular, makes them unsuitable in self-powering systems.

Assay [5] deals with E. coli. The conditions noted are these: Perez et al., cited from earlier work.
Where [6] appears, read: 37° C., inoculum 5 × 10^2 CFU mL^−1.
[7] abbreviates: 37° C., inoculum 5 × 10^3 CFU mL^−1.
Setting [8] is: 37° C., inoculum 5 × 10^4 CFU mL^−1.
The mark [9] stands for this setting: 37° C., inoculum 5 × 10^5 CFU mL^−1.

Like-named read-outs stand apart in the source and are kept apart here. Marks after values point to notes of the source that are not given here.

`O=C1C=C(O)C(=O)c2ccccc21` [2H14NQ, 2-hydroxy-1,4-naphthoquinone]: in the assay with E. coli [1], the “Maximum recorded current in ECs” value is listed as ~100 μA. In the assay on E. coli [1] (ECs), the “Maximum current relative to that achieved with 5H14NQ” value was ~14 times and the “Maximum current relative to that observed with 58H14NQ” value is recorded as ~25 times. The “Current observed in BES” value with E. coli [2] was found to be 40 μA.
In the case of `O=C1C=C(O[C@@H]2O[C@H](CO)[C@H](O)[C@H](O)[C@H]2O)C(=O)c2ccccc21` [2H14NQGal, 2-hydroxy-1,4-naphthoquinone-β-d-galactopyranoside], the “Detection time (±std dev)” value in assay [3] (setting [6]) was 413(±14) minutes; in assay [3] (setting [7]) it was 359(±13) minutes; in assay [3] (setting [8]), 143(±17) minutes; in assay [3] (setting [9]) it was 113(±13) minutes. For the same compound, in assay [3] (inoculum equivalent to 5×10^3 CFU mL^−1 of Perez et al., n=3), the Detection time was 6.87 h.
With `O=C1C=C(O[C@@H]2O[C@H](CO)[C@@H](O)[C@H](O)[C@H]2O)C(=O)c2ccccc21` [2H14NQGlu, 2-hydroxy-1,4-naphthoquinone-β-d-glucopyranoside], the “Detection time (±std dev)” value is reported as 832* minutes in assay [3] (30° C., inoculum 5 × 10^2 CFU mL^−1); 574* minutes in assay [3] (30° C., inoculum 5 × 10^3 CFU mL^−1); 168* minutes in assay [3] (30° C., inoculum 5 × 10^5 CFU mL^−1); 339(±41) minutes in assay [3] (setting [6]); 187(±31) minutes in assay [3] (setting [7]); 142(±11) minutes in assay [3] (setting [8]). Also, in assay [3] (setting [9]), the “Detection time (±std dev)” value is 120(±21) minutes. Further, the Detection time is 19 h in assay [3] (44.5° C., 10 organism, FIG. 7); 12.5 h in assay [3] (44.5° C., 500 organisms, FIG. 7); ~9 h in assay [3] (44.5° C., 5000 organisms, FIG. 7); ~19 h in assay [3] (44.5° C., "CFU mL^−1 of E. coli" (number not given), FIG. 7); “less than 10 h” in assay [3] (44.5° C., inoculum size 500 CFU mL^−1, FIG. 7). The “Detection time for E. coli” value in assay [3] is 120 to 188 min. Moreover, in assay [4], the “Detection time, mixed culture” value lay in the range of 125 to 172 min.
In the case of `Nc1ccc(O[C@@H]2O[C@H](CO)[C@H](O)[C@H](O)[C@H]2O)cc1` [4-APgal, 4-aminophenyl-β-d-galactopyranoside], the “Suitability for bioelectrochemical detection” value (“Suitability” below) in the assay on Escherichia coli was “not well suited for bioelectrochemical detection”. For the same compound, the Detection time with E. coli [5] (1 CFU mL^−1 (laboratory sample)) is recorded as 10 h; in the assay with E. coli [5] (4.5 CFU mL^−1 (marine sample)), 7.3 h.
For the compound `O=C(O)[C@H]1O[C@@H](Oc2ccc([N+](=O)[O-])cc2)[C@H](O)[C@@H](O)[C@@H]1O` [4-NPglu, 4-nitrophenol-β-d-glucuronidase], the “Suitability” value in the assay with Escherichia coli is recorded as “not well suited for bioelectrochemical detection”.
Consider `O=C1C=CC(=O)c2c(O)cccc21` [5H14NQ, 5-hydroxy-1,4-naphthoquinone], for which the “Maximum recorded current in ECs” value with E. coli [1] is listed as ~7 μA. The “Current observed in BES” value in the assay on E. coli [2] is reported as 6 μA.
On to `O=C(O)[C@H]1O[C@@H](Oc2cccc3cccnc23)[C@H](O)[C@@H](O)[C@@H]1O` [8-hydroxyquinoline glucuronide], for which the “Suitability” value in the assay on Escherichia coli is given as “not well suited for bioelectrochemical detection”.
`O=C1C=CC(=O)c2c(O)ccc(O)c21` [58H14NQ, 5,8-dihydroxy-1,4-naphthoquinone]: in the assay with E. coli [1], the “Maximum recorded current in ECs” value is reported as ~4 μA. The “Current observed in BES” value with E. coli [2] is on record as 2.5 μA.
As to `O=c1ccc2nc3ccc(O[C@@H]4O[C@H](CO)[C@@H](O)[C@H](O)[C@H]4O)cc3oc-2c1` [ResGlu, resorufin-β-d-glucopyranoside], the “Detection time (±std dev)” value in assay [3] (setting [6]) is 431(±29) minutes; in assay [3] (setting [7]), 397(±52) minutes; in assay [3] (setting [8]) it was 309(±33) minutes; in assay [3] (setting [9]) it was 259(±19) minutes. The compound also gave a Detection time in assay [3] (inoculum size 5×10^3 CFU mL^−1, ECs) of 6.6 h. For the same compound, the “Detection time for E. coli” value in assay [3] was in the range of 258 to 397 min.

The values are drawn from patent US10179927B2, “Electrochemical detection of microorganisms” (priority 2014, dated 2019).
